Experimental findings from patent US20250144138A1, “Chimeric Antigen Receptor Therapies and Vasoactive Intestinal Peptide Receptor Antagonists” (Emory University, priority 2021, published 2025) are described below.

The test deals with CAR T cells. Briefly: Proliferation of CAR T cells co-cultured with antigen-relevant target cells, treated with exogenous VIP and/or VIPR antagonist. In kind it is cell-based. The procedure: Experiments were performed to determine whether antigen-stimulation increases VPAC1+ CAR T cells and VIPR antagonism enhances CAR T cell proliferation in the presence of VIP. CAR T cells were co-cultured alone or with antigen-relevant or antigen-irrelevant […] for 24 hrs. VPAC1 and VPAC2 expression was evaluated via flow cytometry. […] CAR T cells co-cultured with antigen-relevant target cells were treated with exogenous VIP and/or VIPR antagonist. Proliferation of CAR T cells is suppressed by VIP and rescued by exogenous VIPR antagonist (FIGS. 2A-2C).

Regarding vasoactive intestinal peptide [VIP], the “Proliferation of CAR T cells” value is reported as “suppressed”.
